{
  "source": "patent US20100160454A1",
  "about": "“ANTIMICROBIAL AGENTS, COMPOSITIONS AND PRODUCTS CONTAINING THE SAME, AND METHODS OF USING THE COMPOSITIONS AND PRODUCTS” (Eastman Chemical Company, priority 2008, published 2010)",
  "assay_in_all_cases": "Microbiological challenge testing in BPW broth, graded subculture counts",
  "format_in_all_cases": "cell-based",
  "key": {"[1]": {"system": "Candida albicans Wild type", "conditions": "C. albicans", "in_short": "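Wild-type C. albicans grown in TSB with 1% dextrose at 22 °C, then adjusted by turbidity and hemocytometer to a 10^8 CFU/mL challenge confirmed on SABD plates. Challenge added to BPW broth containing 1% dextrose, giving 10^5 to 10^6 CFU/mL at time zero; controls in triplicate. Counts by serial dilution and spread-plating after at least 48 h incubation.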"}, "[2]": {"system": "Staphylococcus epidermidis ATCC 12228", "in_short": "(§1)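 Challenge substrates of BPW plus 1% dextrose containing the test material (w/v) or broth alone were inoculated to 10^5–10^6 CFU/mL. Bacteria had been precultured in dextrose TSB at 35 °C for at least 96 h. CFU/mL came from plate count × dilution factor on PCA after ≥48 h at 35 °C.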"}, "[3]": {"system": "Escherichia coli ATCC 25922", "conditions": "E. Coli", "in_short": "as §1"}, "[4]": {"system": "Proteus vulgaris Wild type", "in_short": "as §1"}, "[5]": {"system": "Aspergillus niger Wild type", "conditions": "A. niger", "in_short": "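Wild-type A. niger, grown in TSB with 1% dextrose at 22 °C and on SABD until sporulation, was adjusted to 1.0×10^8 spores/vegetative cells (hemocytometer). It was inoculated in triplicate into BPW with 1% dextrose to give 10^5 to 10^6 CFU/mL at time zero. Counts were by spread plate on SABD, ≥48 h at 22 °C, CFU/mL = count × dilution factor.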"}},
  "data": [
    {"smiles": "CC1(C)C(O)C(C)(C)C1O", "note": "(stereo not drawn) [TMCBD, 2,2,4,4-tetramethyl-1,3-cyclobutanediol]", "values": [
      {"measurement": "Grade", "setting": "[1]; 0.5% (wt/vol), 3 day", "value": "4 (1000 to 10,000 colonies countable (thus 10,000 CFU/mL to 100,000 CFU/mL))"},
      {"measurement": "Grade", "setting": "[1]; 0.5% (wt/vol), 14 day", "value": "4 (1000 to 10,000 colonies countable (thus 10,000 CFU/mL to 100,000 CFU/mL))"},
      {"measurement": "Grade", "setting": "[1]; 0.5% (wt/vol), 30 day", "value": "4 (1000 to 10,000 colonies countable (thus 10,000 CFU/mL to 100,000 CFU/mL))"},
      {"measurement": "Grade", "setting": "[1]; 1.25% (wt/vol), 3 day", "value": "3 (100 to 1000 colonies (thus 1000 to 10,000 CFU/mL))"},
      {"measurement": "Grade", "setting": "[1]; 1.25% (wt/vol), 14 day", "value": "4 (1000 to 10,000 colonies countable (thus 10,000 CFU/mL to 100,000 CFU/mL))"},
      {"measurement": "Grade", "setting": "[1]; 1.25% (wt/vol), 30 day", "value": "4 (1000 to 10,000 colonies countable (thus 10,000 CFU/mL to 100,000 CFU/mL))"},
      {"measurement": "Grade", "setting": "[1]; 2.5% (wt/vol), 3 day", "value": "3 (100 to 1000 colonies (thus 1000 to 10,000 CFU/mL))"},
      {"measurement": "Grade", "setting": "[1]; 2.5% (wt/vol), 14 day", "value": "2 (52 to 100 colonies counted (thus 520 to 1000 CFU/mL))"},
      {"measurement": "Grade", "setting": "[1]; 2.5% (wt/vol), 30 day", "value": "2 (52 to 100 colonies counted (thus 520 to 1000 CFU/mL))"},
      {"measurement": "Grade", "setting": "[1]; 5.0% (wt/vol), 3 day", "value": "2 (52 to 100 colonies counted (thus 520 to 1000 CFU/mL))"},
      {"measurement": "Grade", "setting": "[1]; 5.0% (wt/vol), 14 day", "value": 0},
      {"measurement": "Grade", "setting": "[1]; 5.0% (wt/vol), 30 day", "value": 0},
      {"measurement": "S. epidermidis growth grade, 3 day", "setting": "[2]; 0.5% weight/volume", "value": "4 (1000 to 10,000 colonies countable (thus 10,000 CFU/mL to 100,000 CFU/mL))"},
      {"measurement": "S. epidermidis growth grade, 13 day", "setting": "[2]; 0.5% weight/volume", "value": "4 (1000 to 10,000 colonies countable (thus 10,000 CFU/mL to 100,000 CFU/mL))"},
      {"measurement": "S. epidermidis growth grade, 30 day", "setting": "[2]; 0.5% weight/volume", "value": "4 (1000 to 10,000 colonies countable (thus 10,000 CFU/mL to 100,000 CFU/mL))"},
      {"measurement": "S. epidermidis growth grade, 3 day", "setting": "[2]; 1.25% weight/volume", "value": "2 (52 to 100 colonies counted (thus 520 to 1000 CFU/mL))"},
      {"measurement": "S. epidermidis growth grade, 13 day", "setting": "[2]; 1.25% weight/volume", "value": "3 (100 to 1000 colonies (thus 1000 to 10,000 CFU/mL))"},
      {"measurement": "S. epidermidis growth grade, 30 day", "setting": "[2]; 1.25% weight/volume", "value": "4 (1000 to 10,000 colonies countable (thus 10,000 CFU/mL to 100,000 CFU/mL))"},
      {"measurement": "S. epidermidis growth grade, 3 day", "setting": "[2]; 2.5% weight/volume", "value": "2 (52 to 100 colonies counted (thus 520 to 1000 CFU/mL))"},
      {"measurement": "S. epidermidis growth grade, 13 day", "setting": "[2]; 2.5% weight/volume", "value": "2 (52 to 100 colonies counted (thus 520 to 1000 CFU/mL))"},
      {"measurement": "S. epidermidis growth grade, 30 day", "setting": "[2]; 2.5% weight/volume", "value": "2 (52 to 100 colonies counted (thus 520 to 1000 CFU/mL))"},
      {"measurement": "S. epidermidis growth grade, 3 day", "setting": "[2]; 5.0% weight/volume", "value": "1 (0 to 51 colonies counted (thus 10 to 510 CFU/mL based on 0.1-mL sample))"},
      {"measurement": "S. epidermidis growth grade, 13 day", "setting": "[2]; 5.0% weight/volume", "value": 0},
      {"measurement": "S. epidermidis growth grade, 30 day", "setting": "[2]; 5.0% weight/volume", "value": 0},
      {"measurement": "Grade", "setting": "[3]; 0.5% (wt/vol), 3 day", "value": "5 (More than 10,000 colonies estimated (thus more than 100,000 CFU/mL))"},
      {"measurement": "Grade", "setting": "[3]; 0.5% (wt/vol), 14 day", "value": "5 (More than 10,000 colonies estimated (thus more than 100,000 CFU/mL))"},
      {"measurement": "Grade", "setting": "[3]; 0.5% (wt/vol), 30 day", "value": "5 (More than 10,000 colonies estimated (thus more than 100,000 CFU/mL))"},
      {"measurement": "Grade", "setting": "[3]; 1.25% (wt/vol), 3 day", "value": "4 (1000 to 10,000 colonies countable (thus 10,000 CFU/mL to 100,000 CFU/mL))"},
      {"measurement": "Grade", "setting": "[3]; 1.25% (wt/vol), 14 day", "value": "4 (1000 to 10,000 colonies countable (thus 10,000 CFU/mL to 100,000 CFU/mL))"},
      {"measurement": "Grade", "setting": "[3]; 1.25% (wt/vol), 30 day", "value": "4 (1000 to 10,000 colonies countable (thus 10,000 CFU/mL to 100,000 CFU/mL))"},
      {"measurement": "Grade", "setting": "[3]; 2.5% (wt/vol), 3 day", "value": "4 (1000 to 10,000 colonies countable (thus 10,000 CFU/mL to 100,000 CFU/mL))"},
      {"measurement": "Grade", "setting": "[3]; 2.5% (wt/vol), 14 day", "value": "4 (1000 to 10,000 colonies countable (thus 10,000 CFU/mL to 100,000 CFU/mL))"},
      {"measurement": "Grade", "setting": "[3]; 2.5% (wt/vol), 30 day", "value": "4 (1000 to 10,000 colonies countable (thus 10,000 CFU/mL to 100,000 CFU/mL))"},
      {"measurement": "Grade", "setting": "[3]; 5.0% (wt/vol), 3 day", "value": 0},
      {"measurement": "Grade", "setting": "[3]; 5.0% (wt/vol), 14 day", "value": 0},
      {"measurement": "Grade", "setting": "[3]; 5.0% (wt/vol), 30 day", "value": 0},
      {"measurement": "P. vulgaris growth grade, 3 day", "setting": "[4]; 0.5% weight/volume", "value": "4 (1000 to 10,000 colonies countable (thus 10,000 CFU/mL to 100,000 CFU/mL))"},
      {"measurement": "P. vulgaris growth grade, 13 day", "setting": "[4]; 0.5% weight/volume", "value": "4 (1000 to 10,000 colonies countable (thus 10,000 CFU/mL to 100,000 CFU/mL))"},
      {"measurement": "P. vulgaris growth grade, 30 day", "setting": "[4]; 0.5% weight/volume", "value": "4 (1000 to 10,000 colonies countable (thus 10,000 CFU/mL to 100,000 CFU/mL))"},
      {"measurement": "P. vulgaris growth grade, 3 day", "setting": "[4]; 1.25% weight/volume", "value": "3 (100 to 1000 colonies (thus 1000 to 10,000 CFU/mL))"},
      {"measurement": "P. vulgaris growth grade, 13 day", "setting": "[4]; 1.25% weight/volume", "value": "2 (52 to 100 colonies counted (thus 520 to 1000 CFU/mL))"},
      {"measurement": "P. vulgaris growth grade, 30 day", "setting": "[4]; 1.25% weight/volume", "value": 0},
      {"measurement": "P. vulgaris growth grade, 3 day", "setting": "[4]; 2.5% weight/volume", "value": "4 (1000 to 10,000 colonies countable (thus 10,000 CFU/mL to 100,000 CFU/mL))"},
      {"measurement": "P. vulgaris growth grade, 13 day", "setting": "[4]; 2.5% weight/volume", "value": "1 (0 to 51 colonies counted (thus 10 to 510 CFU/mL based on 0.1-mL sample))"},
      {"measurement": "P. vulgaris growth grade, 30 day", "setting": "[4]; 2.5% weight/volume", "value": 0},
      {"measurement": "P. vulgaris growth grade, 3 day", "setting": "[4]; 5.0% weight/volume", "value": 0},
      {"measurement": "P. vulgaris growth grade, 13 day", "setting": "[4]; 5.0% weight/volume", "value": 0},
      {"measurement": "P. vulgaris growth grade, 30 day", "setting": "[4]; 5.0% weight/volume", "value": 0},
      {"measurement": "Grade", "setting": "[5]; 0.5% (wt/vol), 3 day", "value": 5},
      {"measurement": "Grade", "setting": "[5]; 0.5% (wt/vol), 13 day", "value": 5},
      {"measurement": "Grade", "setting": "[5]; 0.5% (wt/vol), 30 day", "value": 5},
      {"measurement": "Grade", "setting": "[5]; 1.25% (wt/vol), 3 day", "value": 4},
      {"measurement": "Grade", "setting": "[5]; 1.25% (wt/vol), 13 day", "value": 4},
      {"measurement": "Grade", "setting": "[5]; 1.25% (wt/vol), 30 day", "value": 4},
      {"measurement": "Grade", "setting": "[5]; 2.5% (wt/vol), 3 day", "value": 3},
      {"measurement": "Grade", "setting": "[5]; 2.5% (wt/vol), 13 day", "value": "2 (Countable (10 to 100 colonies))"},
      {"measurement": "Grade", "setting": "[5]; 2.5% (wt/vol), 30 day", "value": 3},
      {"measurement": "Grade", "setting": "[5]; 5.0% (wt/vol), 3 day", "value": "2 (Countable (10 to 100 colonies))"},
      {"measurement": "Grade", "setting": "[5]; 5.0% (wt/vol), 13 day", "value": 0},
      {"measurement": "Grade", "setting": "[5]; 5.0% (wt/vol), 30 day", "value": 0}
    ]}
  ]
}
